Source: patent US10869931B2, “Polyethylene glycol-modified angiogenesis inhibitor HM-1 and application thereof” (NANJING ANJI BIOLOGICAL TECHNOLOGY CO.,LTD, priority 2016, dated 2020)
Several values for one entry are separate records, joined by “and”; a condition that tells them apart may be missing. Equal values may be shown once. Marks after values point to notes of the source that are not given here. Where no end group is shown, it is not given here.

Columns and labels:
[1] = test system: mouse spleen lymphocytes; test: ConA-stimulated mouse spleen lymphocyte proliferation (MTT); format: cell-based; conditions: 20 μg/mL, ConA 5 μg/mL, 48 h
Description: Tris-NH4Cl was used to break the red blood cells, and the cells were allowed to stand in an ice water bath for 4 min, centrifuged (1000 rpm×5 min), the supernatant was discarded, and the cells were washed twice with sterile PBS. Finally, cells were suspended in RPMI 1640 medium (5 mL) supplemented with 10% calf serum, counted, adjusted to a cell concentration of 5×10^6/mL, and cultured in a 96-well culture plate The test group consisted of blank control group, concanavalin A (ConA) group, dexamethasone (Dex) group (0.02 mg/mL) and mPEG-HM-1 group. […] The cells were cultured in a 37° C. cell culture chamber for 48 h. After the completion of the culture, 20 μL of MTT was added to each well, and the culture was continued for 4 h. Finally, all the solutions in each well were discarded, 100 μL of DMSO was added to each well, and the mixture was shaken and detected by a microplate reader OD value at 570 nm, 5 parallels per hole.

[2] = test system: IL-1β production by mouse peritoneal macrophages; test: IL-1β production by mouse peritoneal macrophages (ELISA); format: cell-based; conditions: 20 μg/mL, 48 h
Description: (1) IL-1β production: mice were intraperitoneally injected with 1 mL of broth (containing 6%) starch, and three days later, the mouse peritoneal macrophages were aseptically taken, washed twice with 1640 medium, and the cell concentration was adjusted to 2×10^6 cells/mL, inject into a 24-well culture plate, 1 mL per well, incubate for 3 hours in a cell culture incubator, shake once every 30 minutes, and allow the cells to fully adhere. Then, it was washed twice with the culture solution to remove unattached cells. The blank group was added with PBS, the positive group was added with the positive drug dexamethasone (Dex), the model group was not administered, to the experimental group was added low, medium and high three concentrations of mPEG-HM-1, and the culture was continued for 48 hours after the administration, 1000 r/min. Centrifuge for 15 min. The supernatant was taken as a sample for testing activity of IL-1β.
(2) Determination of IL-1β content: using R&D mouse IL-1β enzyme-linked immunosorbent assay kit, according to the kit instructions as follows: respectively, the tested samples and different concentrations of standard products, sealed with sealing tape the reaction well and incubated at 37° C. for 90 min; the plate was washed four times; the biotinylated antibody working solution (100 μL/well) was added, and the reaction well was sealed with sealing paper, incubated at 37° c. for 60 min; the plate was washed four times; Add the enzyme conjugate working solution (100 μL/well), seal the reaction well with sealing paper, incubate at 37° C. for 30 min; wash the plate four times; add color reagent (100 μL/well), incubate at 37° C. 10-20 min, add stop solution (100 μL/well), mix and measure OD450 value.

[3] = Half-life / pharmacokinetics of mPEG-HM-1 and HM-1; conditions: in vivo
[4] = test system: Human Umbilical Vein Endothelial Cells (HUVEC); test: Transwell migration of HUVEC; format: cell-based; conditions: 10 μg/mL, 24 h
Description: 10 mg/mL Matrigel was diluted 1:2 with HUVEC-specific medium, spread on a transwell chamber membrane, and air-dried at room temperature. HUVEC cells cultured in logarithmic growth phase were digested with trypsin digest, collected, washed twice with PBS, and resuspended in blank HUVECs-specific medium. The cells were counted under a microscope, and the cell concentration was adjusted to 1×10^5/mL. The test solutions of each group were prepared and diluted to 100 μL with a blank HUVECs-specific medium. The cells were seeded into a transwell chamber at 100 μL per well, and each set of test solution was added to the chamber. The cell culture was stimulated by adding 0.6 mL of endothelial cell culture medium containing 5% fetal bovine serum and 1% ECGS into a 24-well plate, and cultured at 5% CO2 for 24 hour at 37° c. Discard the culture medium in the well, fix it with 90% alcohol at room temperature for 30 minutes, 0.1% crystal violet for 10 min at room temperature, rinse with water, gently wipe off the unsprayed cells in the upper layer with a cotton swab, observe under microscope and select four fields to take pictures. Calculate migration inhibition (MI) according to the formula: […]
Ntest was the number of cell migration in the test group, and Ncontrol was the number of cell migration in the blank control group.
The test was repeated 3 times independently. The results obtained from the test were calculated as mean±SD, and a statistical T test was performed. *P<0.05 was a significant difference, and **P<0.01 was a very significant difference.

[5] = test system: human retinal vascular endothelial cells (HRCEC); test: MTT proliferation of human retinal vascular endothelial cells; format: cell-based; conditions: 10 μg/mL (positive control), 48 h
Description: The activity of the angiogenesis inhibitor polypeptide to inhibit proliferation of human retinal vascular endothelial cells was examined by MTT assay. HRCEC cells were cultured in a 37° C., 5% CO2 incubator to a density of 90% or more, and collected by trypsinization. The cells were resuspended in the culture medium and counted under a microscope to adjust the cell concentration to 3.0×10^4 cells/mL. The cell suspension was inoculated into a 96-well plate at 100 μL per well and cultured overnight at 37° C. in a 5% CO2 incubator. After the cells were completely adhered, the angiogenesis inhibitor polypeptide was added as the administration group, and Avastin was used as the positive control group, and the culture media without any drug was used as a blank control group, and the culture media were diluted to each predetermined concentration. Each dilution was separately added to a 96-well plate at 100 μL per well and incubated for 48 h at 37° C. in a 5% CO2 incubator. 20 μL of 5 mg/mL MTT was added to each well of a 96-well plate and incubation was continued for 4 h. The medium was aspirated and dissolved in 100 μL of DMSO per well. […] The formula is as follows: PI (%)=1−administration group/negative group
The test was repeated 3 times independently. The results obtained by the test were expressed as mean±SD, and a statistical T test was performed. *P<0.05 was a significant difference, and **P<0.01 was a very significant difference.

C[C@@H]1C[C@H]2[C@@H]3CCC4=CC(=O)C=C[C@]4(C)[C@@]3(F)[C@@H](O)C[C@]2(C)[C@@]1(O)C(=O)CO [Dex, dexamethasone, reference compound]
A570 nm/A630 nm [1]: 0.3809 ± 0.1036 and 0.3832 ± 0.1042 and 0.3715 ± 0.1266 and 0.3905 ± 0.1094 | Inhibition Rate of spleen lymphocyte proliferation [1]: 44.66% and 45.92% and 43.72% | inhibition at 20 µg/mL ([1]; Mus musculus, Lymphocyte, read-out: Inhibition Rate of spleen lymphocyte proliferation): 44.8% | IL-1β [2]: 361.03 ± 18.27 pg/mL and 368.23 ± 18.27 pg/mL and 361.45 ± 19.17 pg/mL and 359.92 ± 19.17 pg/mL | Inhibition Rate of IL-1β production [2]: 60.24% and 60.58% and 60.97% | inhibition at 20 µg/mL ([2]; Mus musculus, Peritoneal macrophage, read-out: Inhibition Rate of IL-1β production): 61.5%

RGADRAGGGGRGD [HM-1, Arg-Gly-Ala-Asp-Arg-Ala-Gly-Gly-Gly-Gly-Arg-Gly-Asp]
AUC(0-inf) [3]: 32800 ± 8230 ng·h/mL | MRT inf [3]: 4.02 ± 0.78 min

Avastin: positive control in HUVEC migration and HRCEC proliferation tests [reference compound]
cell migration number (Mean ± SD) [4]: 564.53 ± 60.36 and 560.64 ± 62.06 and 532.80 ± 60.06 and 572.06 ± 48.92 | inhibition rate of HUVEC migration [4]: 46.78%* and 45.92%* and 48.22%* and 47.62%* | Inhibition rate ([5]; HRCEC proliferation): 65.83%** and 64.93%** and 65.71%** and 66.07%** | A570 nm-A630 nm ([5]; HRCEC, MTT): 0.4479 ± 0.08104 and 0.4636 ± 0.08322 and 0.4494 ± 0.08132 and 0.4518 ± 0.08013
